# Measured values published in US20230293630A1, “Coronavirus T Cell Epitopes and Uses Thereof” (priority 2020, published 2023).
# Read-outs that look alike come from different tables or passages of the source.
# System: SARS-CoV-2-specific CD4+ T cells (OX40+CD137+) in PBMC
# Format: cell-based, human
# [1] = CD4+ T cell epitopes identified by AIM assay, share of donors responding
# [2] = CD4+ T cell epitopes identified by AIM assay, sum of response per responding donor
# [3] = CD4+ T cell epitopes identified by AIM assay, total response
# [4] = CD4+ T cell epitopes identified by AIM assay, percent of tested donors responding
# [5] = CD4+ T cell epitopes identified by AIM assay, total response summed over donors
Sequence,Frequency of response (%) [1] [%],Magnitude by # of responding donors [2],Sum of response [3],Frequency of response (%),Magnitude by # of responding donors,Sum of response,Frequency of response (%) [4] [%],Sum of response [5]
LKPFERDISTEIYQA,17,594,1188,–,–,–,–,–
FKDQVILLNKHIDAY,33,446,1785,–,–,–,–,–
LTQHGKEDLKFPRGQ,8,127,127,–,–,–,–,–
VLAAVYRINWITGGI,42,504,2519,–,–,–,–,–
SSANNCTFEYVSQPF,–,–,–,27,1426,4279,–,–
NFSQILPDPSKPSKR,–,647,–,–,–,–,33,2589
VTLADAGFIKQYGDC,17,119,237,–,–,–,–,–
VVIKVCEFQFCNDPF,9,2088,2088,–,–,–,–,–
ITGGIAIAMACLVGL,17,207,414,–,–,–,–,–
FTGYRVTKNSKVQIG,8,116,116,–,–,–,–,–
GIVNNTVYDPLQPEL,7,164,164,–,–,–,–,–
RGHLRIAGHHLGRCD,42,472,2359,–,–,–,–,–
TPPIKDFGGFNFSQI,8,421,421,–,–,–,–,–
QSINFVRIIMRLWLC [SEQ ID NO 252],–,168,–,–,–,–,21,505
FYSKWYIRVGARKSA [SEQ ID NO 255],–,–,–,55,468,2805,–,–
EGALNTPKDHIGTRN,14,185,369,–,–,–,–,–
SFIEDLLFNKVTLAD,–,406,–,–,–,–,17,812
TVTLLPAADLDDFSK,7,648,648,–,–,–,–,–
SLLIVNNATNVVIKV,–,164,–,–,–,–,9,164

Sequence,Frequency of response (%) [1] [%],Magnitude by # of responding donors [2],Sum of response [3],Frequency of response (%),Magnitude by # of responding donors,Sum of response,Frequency of response (%) [4] [%],Sum of response [5]
FHQECSLQSCTQHQP,18,413,826,–,–,–,–,–
VPGLPGTILRTTNGD,9,439,439,–,–,–,–,–
IRGWIFGTTLDSKTQ,9,327,327,–,–,–,–,–
LYENQKLIANQFNSA,7,195,195,–,–,–,–,–
KKPRQKRTATKAYNV,31,227,907,–,–,–,–,–
SIVAGGIVAIVVTCL,9,109,109,–,–,–,–,–
LLFNKVTLADAGFIK,8,297,297,–,–,–,–,–
RAMPNMLRIMASLVL,7,144,144,–,–,–,–,–
DVFHLYLQYIRKLHD,7,247,247,–,–,–,–,–
FIYNKIVDEPEEHVQ,14,243,486,–,–,–,–,–
VWHVNNATNKATYKP,8,158,158,–,–,–,–,–
FTVEKGIYQTSNFRV,–,1202,–,–,–,–,9,1202
LEAPFLYLYALVYFL,7,272,272,–,–,–,–,–
YREAACCHLAKALND,8,109,109,–,–,–,–,–
RVAGDSGFAAYSRYR,15,139,278,–,–,–,–,–
ADAVIKTLQPVSELL,8,436,436,–,–,–,–,–
TNILLNVPLHGTILT,25,543,1628,–,–,–,–,–
LVAAGLEAPFLYLYA,9,133,133,–,–,–,–,–
GKGQQQQGQTVTKKS,7,318,318,–,–,–,–,–

Sequence,Frequency of response (%) [1] [%],Magnitude by # of responding donors [2],Sum of response [3],Frequency of response (%),Magnitude by # of responding donors,Sum of response,Frequency of response (%) [4] [%],Sum of response [5]
ELDKYFKNHTSPDVD,–,361,–,–,–,–,7,361
LGASQRVAGDSGFAA,15,491,981,–,–,–,–,–
LGRCDIKDLPKEITV,25,313,938,–,–,–,–,–
GSLVVRCSFYEDFLE,27,231,694,–,–,–,–,–
NHTKKWKYPQVNGLT,9,123,123,–,–,–,–,–
PRWYFYYLGTGPEAG,7,750,750,–,–,–,–,–
VYYPDKVFRSSVLHS,15,198,395,–,–,–,–,–
MAAYVDNSSLTIKKP,7,185,185,–,–,–,–,–
LNTDHSSSSDNIALL,8,568,568,–,–,–,–,–
ESDDYIATNGPLKVG,8,133,133,–,–,–,–,–
ARKSAPLIELCVDEA,18,329,658,–,–,–,–,–
RFASVYAWNRKRISN,27,241,722,–,–,–,–,–
EDFLEYHDVRVVLDF,18,571,1141,–,–,–,–,–
IAATRGATVVIGTSK,6,117,117,–,–,–,–,–
KIITLKKRWQLALSK,9,120,120,–,–,–,–,–
YMSALNHTKKWKYPQ,9,109,109,–,–,–,–,–
PQNQRNAPRITFGGP,6,222,222,–,–,–,–,–
AIAMACLVGLMWLSY,8,151,151,–,–,–,–,–
